Solubility and Ki data for three compounds are collected here from patent publication US9340500B2, “Aromatic heterocyclic derivative having TRPV4-inhibiting activity” (SHIONOGI & CO., LTD., priority 2011, dated 2016).

pKi: −log10 of the molar value. ≈ marks a conversion by molar mass, not a printed value.

A short description of one data set: Solubility test. It counts as physicochemical. The conditions noted are these: artificial intestinal juice (phosphate buffer) with 1% DMSO, fassgf or other biorelevant, kinetic from dmso stock, artificial intestinal juice pH 6.8, 16 hours at 25° C. Put shortly: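 A DMSO stock was added to artificial intestinal juice at pH 6.8, giving 1% DMSO. The mixture stood 16 hours at 25° C. and was vacuum-filtered. Dissolved compound in the filtrate was quantified by HPLC or LC/MS/MS using absolute calibration.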

A further data set has as its target human TRPV4 (Homo sapiens (Human), UniProt Q9HBA0). The data set is described as follows: Test Example 3: measurement of TRPV4 inhibitory activity (Fluo-3, FDSS 3000, 4α-PDD). The data set is classed as cell-based. The conditions noted are these: hTRPV4/CHO cells, calculated from IC50 and 4α-PDD EC50. In a few lines:
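Fluo-3-loaded CHO-K1 cells stably expressing TRPV4 in HEPES/probenecid Hanks buffer pH 7.4; compound added, then 4α-PDD, Ca2+ fluorescence (Ex 480/Em 540 nm) read 8 min. Max-Min normalized to 10 μM Ruthenium Red (100%) and vehicle; IC50 from 10-point 3-fold series converted to Ki using 4α-PDD EC50 and concentration.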

human TRPV4, sequence (Q9HBA0 whole entry): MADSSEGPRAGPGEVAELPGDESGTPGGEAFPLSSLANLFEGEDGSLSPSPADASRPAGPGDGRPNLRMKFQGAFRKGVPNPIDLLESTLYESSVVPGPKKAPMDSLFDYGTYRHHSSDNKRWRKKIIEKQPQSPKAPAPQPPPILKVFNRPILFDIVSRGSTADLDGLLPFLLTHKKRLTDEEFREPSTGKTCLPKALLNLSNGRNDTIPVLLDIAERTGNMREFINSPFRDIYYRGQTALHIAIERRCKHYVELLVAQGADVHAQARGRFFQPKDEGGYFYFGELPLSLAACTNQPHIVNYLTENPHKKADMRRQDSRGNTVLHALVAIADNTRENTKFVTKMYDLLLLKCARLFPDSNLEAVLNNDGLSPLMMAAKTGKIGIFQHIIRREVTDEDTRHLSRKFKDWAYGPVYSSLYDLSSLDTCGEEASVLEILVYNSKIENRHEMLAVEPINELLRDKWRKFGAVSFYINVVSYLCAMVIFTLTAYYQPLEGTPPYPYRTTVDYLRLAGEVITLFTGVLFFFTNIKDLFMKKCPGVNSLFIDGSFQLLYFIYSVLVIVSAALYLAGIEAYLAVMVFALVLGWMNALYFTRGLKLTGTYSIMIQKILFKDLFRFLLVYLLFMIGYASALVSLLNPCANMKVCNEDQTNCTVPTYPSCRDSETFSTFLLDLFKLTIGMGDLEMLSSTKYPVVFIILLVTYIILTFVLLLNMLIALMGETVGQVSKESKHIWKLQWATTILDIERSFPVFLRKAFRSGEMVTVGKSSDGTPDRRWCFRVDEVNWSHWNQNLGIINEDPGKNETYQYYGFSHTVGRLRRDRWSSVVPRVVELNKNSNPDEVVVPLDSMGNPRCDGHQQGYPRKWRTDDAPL

`Cc1c(C(=O)Nc2cccc(C(F)(F)F)c2)cc(-c2ccccc2)n1CCCNS(C)(=O)=O` [Compound I-026]: the solubility at 16 h in “Solubility test” amounted to 10.1 µM (≈ 4.84 µg/mL). Besides, on human TRPV4, the pKi was 6.37.
In the same order, the values of `Cc1c(C(=O)Nc2cccc(C(F)(F)F)c2)cc(-c2ccccc2)n1CCCN(C)C` [Compound I-018] are over 50 µM and 6.77.
In the same order, the values of `Cc1c(C(=O)Nc2cccc(C(F)(F)F)c2)ccn1CCCN1CCOCC1` [Compound I-007] are over 50 µM and 5.84.
